Converted amounts (≈) assume the structure as drawn. Read-outs that look alike come from different tables or passages of the source. Marks after values point to notes of the source that are not given here.
Experiments:
Format in all cases: physicochemical
[1] = Competitive slurry experiments between polymorph forms (thermodynamic stability); settings: for most stable form in competitive slurry: 15 forms mixed (10 mg each), RT and 50° C., 3-5 days
Protocol: In order to find out the thermodynamic stability between the different forms, several competitive slurry experiments were carried out. Form 1, Form 2, Form 2*, Form 3, Form 4, Form 4*, Form 4**, Form 5, Form 7, Form 8, Form 9, Form 10, Form 11, Form 11*, and Form 13 (10 mg for each) was mixed and slurried in 2 mL of solvent at both RT and 50° C. The solids were slurried for 3-5 days and then analyzed by XRD.
In order to find out the thermodynamic stability between Form 13 and Form 9, several competitive slurry experiments were carried out. 15 mg of Form 1, Form 9 and Form 13 solid were mixed in 1 mL of toluene, IPAc, and n-butyl acetate, and slurried for 3 days at RT and 50° C.
The residual solid was analyzed by XRD.

[2] = Dynamic vapor sorption (DVS) and exposure to humidity/air of solid forms
Protocol: The hydrate lost its water below 30% RH.
The purity of the Form 13 sample was 98.8%; the KF of an undried Form 13 sample was 35.7%.
Solvates 1 and 2 solids were exposed to air overnight, and then analyzed by XRD. After the analysis, the solids were dried at 50° C. under vacuum, and then analyzed by XRD again.

[3] = Slurry experiments in various solvents (polymorph screen)
Protocol: Slurry experiments in various solvents were performed. Approximately 30-80 mg of the starting solid (a non-stoichiometric hydrate of Form 1 having between 1% and about 20% by weight water) was slurried in 39 different solvents (pure and binary solvents; the ratio of organic solvent/water (V/V) was 95%/5%) at RT and 50° C. for 5 days. Three solvates, […], and eleven non-solvated forms were identified. […] XRD of both wet and dry samples were scanned (FIG. 12A (dry sample)).
The slurry experiments identified 3 solvated forms from wet samples (Solvates 1, 2, and 3); 2 non-stoichiometric hydrates of Form 1 (Forms 12 and 13); and 11 non-solvated forms (Forms 1-11). In some instances, similar XRD scans with minor differences were obtained. These were considered to be part of the same class (e.g., the same form). For example, XRD scans of Form 2 and Form 2* were similar and were considered to belong to the same class. The solvated forms were obtained from wet sample analysis; after drying, the sample indicated a different XRD.

[4] = Solubility of the starting solid by the gravimetric method; settings: for solubility: thermodynamic from solid
[5] = slurry in EtOH/water (5% water), 50° C.
[6] = slurry in n-Butyl acetate, 50° C.
[7] = slurry in n-Propanol/water (5% water), 50° C.
[8] = slurry in DMSO/water (5% water), 50° C.
[9] = slurry in DMSO/water (5% water), RT
[10] = slurry in DMF/water (5% water), 50° C.
[11] = slurry in DMF/water (5% water), RT

CC(C)CC(=O)Nc1cncc(-c2ccc3[nH]nc(-c4nc5c(-c6cccc(F)c6)cncc5[nH]4)c3c2)c1 [Form 1, Form 9 and Form 13]
Form after 3 days; wet/dry ([1]; 50° C., IPAc): Form 9/Form 9
Form after 3 days; wet/dry ([1]; 50° C., Toluene): Form 9 + Form 13/Form 9 + Form 1
Form after 3 days; wet/dry ([1]; 50° C., n-Butyl acetate): Form 9 + Form 13/Form 9 + Form 1
Form after 3 days; wet/dry ([1]; RT, IPAc): Form 9 + Form 13/Form 9 + Form 1
Form after 3 days; wet/dry ([1]; RT, Toluene): Form 13/Form 1
Form after 3 days; wet/dry ([1]; RT, n-Butyl acetate): Form 9 + Form 13/Form 9 + Form 1

CC(C)CC(=O)Nc1cncc(-c2ccc3[nH]nc(-c4nc5c(-c6cccc(F)c6)cncc5[nH]4)c3c2)c1 [Form 1]
form change when exposed to air ([2]; exposed to air): converts to Form 13

CC(C)CC(=O)Nc1cncc(-c2ccc3[nH]nc(-c4nc5c(-c6cccc(F)c6)cncc5[nH]4)c3c2)c1 [Form 4]
most stable form in competitive slurry ([1]; EA): most stable

CC(C)CC(=O)Nc1cncc(-c2ccc3[nH]nc(-c4nc5c(-c6cccc(F)c6)cncc5[nH]4)c3c2)c1 [Form 9]
change of form before and after the DVS scan ([2]; XRD before/after DVS): did not change its form
Dry (solid form by XRD after slurry) [3, 5]: Form 9
Wet (solid form by XRD after slurry) [3, 5]: Form 9
Dry (solid form by XRD after slurry) ([3]; slurry in IPAc, 50° C.): Form 9
Wet (solid form by XRD after slurry) ([3]; slurry in IPAc, 50° C.): Form 9
Dry (solid form by XRD after slurry) ([3]; slurry in n-Butanol, 50° C.): Form 9
Wet (solid form by XRD after slurry) ([3]; slurry in n-Butanol, 50° C.): Form 9
Dry (solid form by XRD after slurry) ([3]; slurry in n-Butanol, RT): Form 9
Wet (solid form by XRD after slurry) ([3]; slurry in n-Butanol, RT): Form 9
Dry (solid form by XRD after slurry) [3, 6]: Form 9
Wet (solid form by XRD after slurry) [3, 6]: Form 9
Dry (solid form by XRD after slurry) [3, 7]: Form 9
Wet (solid form by XRD after slurry) [3, 7]: Form 9

CC(C)CC(=O)Nc1cncc(-c2ccc3[nH]nc(-c4nc5c(-c6cccc(F)c6)cncc5[nH]4)c3c2)c1 [Form 10]
Dry (solid form by XRD after slurry) ([3]; slurry in DMSO, 50° C.): Form 10*
Wet (solid form by XRD after slurry) ([3]; slurry in DMSO, 50° C.): amorphous
Dry (solid form by XRD after slurry) ([3]; slurry in DMSO, RT): Form 10
Wet (solid form by XRD after slurry) ([3]; slurry in DMSO, RT): amorphous
Dry (solid form by XRD after slurry) [3, 8]: Form 10
Wet (solid form by XRD after slurry) [3, 8]: amorphous
Dry (solid form by XRD after slurry) [3, 9]: Form 10
Wet (solid form by XRD after slurry) [3, 9]: amorphous

CC(C)CC(=O)Nc1cncc(-c2ccc3[nH]nc(-c4nc5c(-c6cccc(F)c6)cncc5[nH]4)c3c2)c1 [Form 11]
Dry (solid form by XRD after slurry) ([3]; slurry in DMF, 50° C.): Form 11*
Wet (solid form by XRD after slurry) ([3]; slurry in DMF, 50° C.): Form 11
Dry (solid form by XRD after slurry) ([3]; slurry in DMF, RT): Form 11
Wet (solid form by XRD after slurry) ([3]; slurry in DMF, RT): Form 11
Dry (solid form by XRD after slurry) [3, 10]: Form 11
Wet (solid form by XRD after slurry) [3, 10]: Form 11
Dry (solid form by XRD after slurry) [3, 11]: Form 11
Wet (solid form by XRD after slurry) [3, 11]: Form 11

CC(C)CC(=O)Nc1cncc(-c2ccc3[nH]nc(-c4nc5c(-c6cccc(F)c6)cncc5[nH]4)c3c2)c1 [Form 13]
most stable form in competitive slurry ([1]; water): most stable

CC(C)CC(=O)Nc1cncc(-c2ccc3[nH]nc(-c4nc5c(-c6cccc(F)c6)cncc5[nH]4)c3c2)c1 [Solvate 1]
form change after exposure to air overnight (XRD) [2]: converted to low crystallinity

CC(C)CC(=O)Nc1cncc(-c2ccc3[nH]nc(-c4nc5c(-c6cccc(F)c6)cncc5[nH]4)c3c2)c1 [Solvate 2]
form change after exposure to air overnight (XRD) [2]: changed a little

CC(C)CC(=O)Nc1cncc(-c2ccc3[nH]nc(-c4nc5c(-c6cccc(F)c6)cncc5[nH]4)c3c2)c1 [starting solid]
Solubility (gravimetric method) ([4]; RT and 50° C., all solvents tested except DMF and DMSO): low solubility
solubility ([4]; organic solvent or mixture, Acetic acid, 50° C., read-out: Solubility at 50° C.): 3000 µg/mL (≈ 5930 µM)
solubility ([4]; organic solvent or mixture, Acetone, 50° C., read-out: Solubility at 50° C.): 1000 µg/mL (≈ 1980 µM)
solubility ([4]; organic solvent or mixture, Acetone, RT, read-out: Solubility at RT): 1000 µg/mL (≈ 1980 µM)
solubility ([4]; organic solvent or mixture, DCM, 50° C., read-out: Solubility at 50° C.): 2000 µg/mL (≈ 3960 µM)
solubility ([4]; organic solvent or mixture, DCM, RT, read-out: Solubility at RT): 2000 µg/mL (≈ 3960 µM)
solubility ([4]; organic solvent or mixture, DMF, 50° C., read-out: Solubility at 50° C.): 16000 µg/mL (≈ 31600 µM)
solubility ([4]; organic solvent or mixture, DMF, RT, read-out: Solubility at RT): 12000 µg/mL (≈ 23700 µM)
solubility ([4]; organic solvent or mixture, EA, 50° C., read-out: Solubility at 50° C.): 1000 µg/mL (≈ 1980 µM)
solubility ([4]; organic solvent or mixture, EA, RT, read-out: Solubility at RT): 1000 µg/mL (≈ 1980 µM)
solubility ([4]; organic solvent or mixture, EtOH, 50° C., read-out: Solubility at 50° C.): 2000 µg/mL (≈ 3960 µM)
solubility ([4]; organic solvent or mixture, EtOH, RT, read-out: Solubility at RT): 2000 µg/mL (≈ 3960 µM)
solubility ([4]; organic solvent or mixture, IPA, 50° C., read-out: Solubility at 50° C.): 5000 µg/mL (≈ 9890 µM)
solubility ([4]; organic solvent or mixture, IPA, RT, read-out: Solubility at RT): 2000 µg/mL (≈ 3960 µM)
solubility ([4]; organic solvent or mixture, MEK, 50° C., read-out: Solubility at 50° C.): 1000 µg/mL (≈ 1980 µM)
solubility ([4]; organic solvent or mixture, MEK, RT, read-out: Solubility at RT): 1000 µg/mL (≈ 1980 µM)
solubility ([4]; organic solvent or mixture, MIBK, 50° C., read-out: Solubility at 50° C.): 1000 µg/mL (≈ 1980 µM)
solubility ([4]; organic solvent or mixture, MIBK, RT, read-out: Solubility at RT): 1000 µg/mL (≈ 1980 µM)
solubility ([4]; organic solvent or mixture, MeOH, 50° C., read-out: Solubility at 50° C.): 1000 µg/mL (≈ 1980 µM)
solubility ([4]; organic solvent or mixture, MeOH, RT, read-out: Solubility at RT): 1000 µg/mL (≈ 1980 µM)
solubility ([4]; organic solvent or mixture, Toluene, 50° C., read-out: Solubility at 50° C.): 1000 µg/mL (≈ 1980 µM)
solubility ([4]; organic solvent or mixture, Toluene, RT, read-out: Solubility at RT): 1000 µg/mL (≈ 1980 µM)
solubility ([4]; organic solvent or mixture, n-Butanol, 50° C., read-out: Solubility at 50° C.): 2000 µg/mL (≈ 3960 µM)
solubility ([4]; organic solvent or mixture, n-Butanol, RT, read-out: Solubility at RT): 1000 µg/mL (≈ 1980 µM)
solubility ([4]; organic solvent or mixture, n-Propanol, 50° C., read-out: Solubility at 50° C.): 2000 µg/mL (≈ 3960 µM)
solubility ([4]; organic solvent or mixture, n-Propanol, RT, read-out: Solubility at RT): 1000 µg/mL (≈ 1980 µM)
solubility ([4]; water, 50° C., read-out: Solubility at 50° C.): 1000 µg/mL (≈ 1980 µM)
solubility ([4]; water, RT, read-out: Solubility at RT): 1000 µg/mL (≈ 1980 µM)

Source: US10882860B2, “Treatment of osteoarthritis” (Samumed, LLC, priority 2015, dated 2021)
